Measured values as given in US10266537B2, “3-acetylenyl-pyrazole-pyrimidine derivative, and preparation method therefor and uses thereof” (Si Chuan University, priority 2015, dated 2019).
Read-outs that look alike come from different tables or passages of the source.

Key:
MDA-MB-231 = assay: Cell proliferation inhibition assay (MTT); assay type: cell-based, human; conditions: Homo sapiens, read-out: Proliferative inhibitory activity MDA-MB-231 (IC50 class)
Description: The remaining cell lines were cultured in DMEM complete medium containing 10% fetal bovine serum (MV4-11 cells 20%), 100 U/ml penicillin, 100 μg/mL streptomycin at 5% CO2, and 37° C.
The cells were seeded in 96-well plates with 200 μL of cell suspension per well and incubated overnight in a cell culture medium with a cell concentration of 1˜2×10^4 cells/mL. The next day, the supernatant was discarded (the suspension cell was centrifuged before it) and the cells were treated with gradient concentrations of the test compound, respectively. At the same time, the drug-free negative control group and the equal volume of solvent control group, DMSO concentration of 0.1%, each dose group set up three wells, 37° C., 5% CO2 conditions. After 72 hours, add 20 μL of MTT reagent at a concentration of 5 mg/mL per well. After incubation for 2-4 h, the supernatant was discarded and 150 μL of DMSO was added to each well. […] Determine the absorbance (A) value (λ=570 nm, A value is proportional to the number of living cells), whichever is the average. […] The experiment was repeated at least 3 times. Experimental data were expressed as mean, data statistics using t test, P<0.05 for the difference was statistically significant. The inhibitory effects of the following compounds on cell proliferation were expressed as IC50 or inhibition rates.

MDA-MB-435 = assay: Cell proliferation inhibition assay (MTT); assay type: cell-based, human; conditions: Homo sapiens, read-out: Proliferative inhibitory activity MDA-MB-435 (IC50 class)

| SMILES | IC50 (MDA-MB-231; MDA-MB-231, MTT, 72 hours) [nM] | IC50 (MDA-MB-435; MDA-MB-435, MTT, 72 hours) [nM] | IC50 (MDA-MB-231; MDA-MB-231, 72 h) [nM] | IC50 (MDA-MB-435; MDA-MB-435, 72 h) [nM] |
| --- | --- | --- | --- | --- |
| Cc1ccc(NC(=O)c2ccc(CN3CCN(C)CC3)cc2)cc1C#Cc1nn(C(C)C)c2ncnc(N)c12 [Compound 1] | 100 to 500 | 100 to 500 |  |  |
| CCn1nc(C#Cc2cc(C(=O)Nc3ccc(CN4CCN(C)CC4)c(C(F)(F)F)c3)ccc2C)c2c(N)ncnc21 [Compound 2] | < 100 | < 100 |  |  |
| CC(=O)Nc1ncnc2c1c(C#Cc1cc(C(=O)Nc3ccc(CN4CCN(C)CC4)c(C(F)(F)F)c3)ccc1C)nn2C(C)C [Compound 15] | 100 to 500 | 100 to 500 |  |  |
| Cc1ccc(C(=O)Nc2ccc(CN3CCN(C)CC3)c(C(F)(F)F)c2)cc1C#Cc1nn([C@@H]2CCOC2)c2ncnc(N)c12 [Compound 20] |  |  | < 100 | < 100 |
| Cc1ccc(C(=O)Nc2ccc(CN3CCN(C)CC3)c(C(F)(F)F)c2)cc1C#Cc1nn([C@H]2CCOC2)c2ncnc(N)c12 [Compound 21] |  |  | < 100 | < 100 |
| Cc1ccc(NC(=O)c2ccc(C)c(C#Cc3nn(C(C)C)c4ncnc(N)c34)c2)cc1 [Compound 22] | 100 to 500 | > 1000 |  |  |
| CCn1nc(C#Cc2cc(C(=O)Nc3ccc(CN4CCN(C)CC4)c(C(F)(F)F)c3)ccc2F)c2c(N)ncnc21 [Compound 23] | > 1000 | 100 to 500 |  |  |
| CCn1nc(C#Cc2cc(C(=O)Nc3ccc(CN4CCN(C)CC4)c(C(F)(F)F)c3)ccc2C(C)C)c2c(N)ncnc21 [Compound 27] | > 1000 | > 1000 |  |  |
| Cc1ccc(NC(=O)c2ccc(CN3CCN(C)CC3)c(C(F)(F)F)c2)cc1C#Cc1nn(C)c2ncnc(N)c12 [Compound 28] | < 100 | < 100 |  |  |
| Cc1ccc(C(=O)Nc2cccc(C(F)(F)F)c2)cc1C#Cc1nn(C2CCN(C)CC2)c2ncnc(N)c12 [Compound 32] | < 100 | 100 to 500 |  |  |
| CN1CCC(n2nc(C#Cc3cccc(NC(=O)c4cccc(C(F)(F)F)c4)c3)c3c(N)ncnc32)CC1 [Compound 33] | 500 to 1000 | 100 to 500 |  |  |
| CN1CCC(n2nc(C#Cc3cc(NC(=O)c4cccc(C(F)(F)F)c4)ccc3Cl)c3c(N)ncnc32)CC1 [Compound 34] | 500 to 1000 | 100 to 500 |  |  |
| Cc1ccc(NC(=O)Nc2cccc(C(F)(F)F)c2)cc1C#Cc1nn(C2CCN(C)CC2)c2ncnc(N)c12 [Compound 35] | 500 to 1000 | < 100 |  |  |
| CN1CCC(n2nc(C#Cc3cc(NC(=O)Nc4cccc(C(F)(F)F)c4)ccc3Cl)c3c(N)ncnc32)CC1 [Compound 36] | 500 to 1000 | 100 to 500 |  |  |
| CN1CCC(n2nc(C#Cc3cccc(C(=O)Nc4cccc(C(F)(F)F)c4)c3)c3c(N)ncnc32)CC1 [Compound 37] | > 1000 | 100 to 500 |  |  |
| CN1CCC(n2nc(C#Cc3cc(C(=O)Nc4cccc(C(F)(F)F)c4)ccc3Cl)c3c(N)ncnc32)CC1 [Compound 38] | 500 to 1000 | 100 to 500 |  |  |
| CN1CCC(n2nc(C#Cc3cccc(NC(=O)Nc4cccc(C(F)(F)F)c4)c3)c3c(N)ncnc32)CC1 [Compound 39] | > 1000 | 500 to 1000 |  |  |
| Cc1ccc(NC(=O)c2cccc(C(C)(C)C)c2)cc1C#Cc1nn(C2CCN(C)CC2)c2ncnc(N)c12 [Compound 40] | < 100 | < 100 |  |  |
| Cc1ccc(NC(=O)c2ccc(C(F)(F)F)cc2)cc1C#Cc1nn(C2CCN(C)CC2)c2ncnc(N)c12 [Compound 41] | 500 to 1000 | > 1000 |  |  |

| SMILES | IC50 (MDA-MB-231; MDA-MB-231, MTT, 72 hours) [nM] | IC50 (MDA-MB-435; MDA-MB-435, MTT, 72 hours) [nM] | IC50 (MDA-MB-231; MDA-MB-231, 72 h) [nM] | IC50 (MDA-MB-435; MDA-MB-435, 72 h) [nM] |
| --- | --- | --- | --- | --- |
| Cc1ccc(NC(=O)c2ccc(C)c(C(F)(F)F)c2)cc1C#Cc1nn(C2CCN(C)CC2)c2ncnc(N)c12 [Compound 42] | < 100 | < 100 |  |  |
| COc1ccc(C(=O)Nc2ccc(C)c(C#Cc3nn(C4CCN(C)CC4)c4ncnc(N)c34)c2)cc1 [Compound 43] | > 1000 | > 1000 |  |  |
| COc1cccc(C(=O)Nc2ccc(C)c(C#Cc3nn(C4CCN(C)CC4)c4ncnc(N)c34)c2)c1 [Compound 44] | 100 to 500 | 100 to 500 |  |  |
| Cc1ccc(NC(=O)c2cccc(F)c2)cc1C#Cc1nn(C2CCN(C)CC2)c2ncnc(N)c12 [Compound 45] | 500 to 1000 | > 1000 |  |  |
| Cc1ccc(NC(=O)c2ccc(F)c(Cl)c2)cc1C#Cc1nn(C2CCN(C)CC2)c2ncnc(N)c12 [Compound 46] | 500 to 1000 | > 1000 |  |  |
| Cc1ccc(NC(=O)c2ccc(F)c(C(F)(F)F)c2)cc1C#Cc1nn(C2CCN(C)CC2)c2ncnc(N)c12 [Compound 47] | 500 to 1000 | 500 to 1000 |  |  |
| Cc1ccc(NC(=O)c2cccc(C(F)(F)F)c2F)cc1C#Cc1nn(C2CCN(C)CC2)c2ncnc(N)c12 [Compound 48] | 100 to 500 | 100 to 500 |  |  |
| Cc1ccc(NC(=O)c2cccc(Cl)c2)cc1C#Cc1nn(C2CCN(C)CC2)c2ncnc(N)c12 [Compound 49] | < 100 | 500 to 1000 |  |  |
| Cc1ccc(NC(=O)c2cc(C(F)(F)F)ccc2F)cc1C#Cc1nn(C2CCN(C)CC2)c2ncnc(N)c12 [Compound 50] | 100 to 500 | 100 to 500 |  |  |
| Cc1ccc(NC(=O)c2cc(F)cc(C(F)(F)F)c2)cc1C#Cc1nn(C2CCN(C)CC2)c2ncnc(N)c12 [Compound 51] | 500 to 1000 | > 1000 |  |  |
| Cc1ccc(NC(=O)c2cccc(OC(F)(F)F)c2)cc1C#Cc1nn(C2CCN(C)CC2)c2ncnc(N)c12 [Compound 52] | < 100 | < 100 |  |  |
| Cc1ccc(NC(=O)c2ccc(Cl)cc2)cc1C#Cc1nn(C2CCN(C)CC2)c2ncnc(N)c12 [Compound 53] | < 100 | 100 to 500 |  |  |
| Cc1ccc(NC(=O)c2cc(C(F)(F)F)cc(C(F)(F)F)c2)cc1C#Cc1nn(C2CCN(C)CC2)c2ncnc(N)c12 [Compound 54] | < 100 | < 100 |  |  |
| Cc1cccc(C(=O)Nc2ccc(C)c(C#Cc3nn(C4CCN(C)CC4)c4ncnc(N)c34)c2)c1 [Compound 55] | 100 to 500 | 100 to 500 |  |  |
| Cc1ccc(NC(=O)c2cc(C(F)(F)F)cc(Cl)c2F)cc1C#Cc1nn(C2CCN(C)CC2)c2ncnc(N)c12 [Compound 56] | > 1000 | > 1000 |  |  |
| Cc1ccc(NC(=O)c2cccc(C(F)(F)F)n2)cc1C#Cc1nn(C2CCN(C)CC2)c2ncnc(N)c12 [Compound 57] | 500 to 1000 | > 1000 |  |  |
| Cc1ccc(NC(=O)c2cncc(C(F)(F)F)c2)cc1C#Cc1nn(C2CCN(C)CC2)c2ncnc(N)c12 [Compound 58] | 100 to 500 | < 100 |  |  |
| Cc1ccc(NC(=O)c2ccnc(C(F)(F)F)c2)cc1C#Cc1nn(C2CCN(C)CC2)c2ncnc(N)c12 [Compound 59] | 100 to 500 | 100 to 500 |  |  |
| Cc1ccc(NC(=O)c2ccc(Cl)c(Cl)c2)cc1C#Cc1nn(C2CCN(C)CC2)c2ncnc(N)c12 [Compound 60] | 100 to 500 | 500 to 1000 |  |  |

| SMILES | IC50 (MDA-MB-231; MDA-MB-231, MTT, 72 hours) [nM] | IC50 (MDA-MB-435; MDA-MB-435, MTT, 72 hours) [nM] | IC50 (MDA-MB-231; MDA-MB-231, 72 h) [nM] | IC50 (MDA-MB-435; MDA-MB-435, 72 h) [nM] |
| --- | --- | --- | --- | --- |
| Cc1ccc(C(=O)Nc2cc(C(C)(C)C)nn2C)cc1C#Cc1nn(C2CCN(C)CC2)c2ncnc(N)c12 [Compound 61] | 100 to 500 | 100 to 500 |  |  |
| Cc1ccc(C(=O)Nc2cc(C(C)(C)C)on2)cc1C#Cc1nn(C2CCN(C)CC2)c2ncnc(N)c12 [Compound 62] | < 100 | < 100 |  |  |
| Cc1ccc(NC(=O)c2cc(C(C)(C)C)nn2C)cc1C#Cc1nn(C2CCN(C)CC2)c2ncnc(N)c12 [Compound 63] | 100 to 500 | < 100 |  |  |
| Cc1ccc(NC(=O)c2cc(C(C)(C)C)on2)cc1C#Cc1nn(C2CCN(C)CC2)c2ncnc(N)c12 [Compound 64] | 100 to 500 | < 100 |  |  |
| Cc1ccc(NC(=O)c2nc(C(C)(C)C)cs2)cc1C#Cc1nn(C2CCN(C)CC2)c2ncnc(N)c12 [Compound 65] | < 100 | < 100 |  |  |
| Cc1ccc(NC(=O)c2cc(Cl)cc(C(F)(F)F)c2)cc1C#Cc1nn(C2CCN(C)CC2)c2ncnc(N)c12 [Compound 66] | < 100 | < 100 |  |  |
| Cc1ccc(NC(=O)c2ccc(Cl)c(C(F)(F)F)c2)cc1C#Cc1nn(C2CCN(C)CC2)c2ncnc(N)c12 [Compound 67] | < 100 | < 100 |  |  |
| Cc1ccc(NC(=O)c2cc(Cl)cc(Cl)c2)cc1C#Cc1nn(C2CCN(C)CC2)c2ncnc(N)c12 [Compound 68] | 100 to 500 | 100 to 500 |  |  |
| Cc1ccc(NC(=O)c2ccc(Cl)c(C(F)(F)F)c2)cc1C#Cc1nn(CC2CCN(C)C2)c2ncnc(N)c12 (stereo not shown) [Compound 69] | < 100 | > 1000 |  |  |
| Cc1ccc(NC(=O)c2ccc(Cl)c(C(F)(F)F)c2)cc1C#Cc1nn(C2CCN(C(=O)[C@H](C)O)CC2)c2ncnc(N)c12 [Compound 70] | < 100 | 500 to 1000 |  |  |
| Cc1ccc(NC(=O)c2ccc(Cl)c(C(F)(F)F)c2)cc1C#Cc1nn(C2CCN(C(=O)[C@@H](C)O)CC2)c2ncnc(N)c12 [Compound 71] | < 100 | < 100 |  |  |
| Cc1ccc(NC(=O)c2ccc(Cl)c(C(F)(F)F)c2)cc1C#Cc1nn([C@@H]2CCN(C(=O)[C@H](C)O)C2)c2ncnc(N)c12 [Compound 72] | < 100 | > 1000 |  |  |
| Cc1ccc(NC(=O)c2ccc(Cl)c(C(F)(F)F)c2)cc1C#Cc1nn([C@@H]2CCN(C(=O)[C@@H](C)O)C2)c2ncnc(N)c12 [Compound 73] | < 100 | > 1000 |  |  |
| Cc1ccc(NC(=O)c2ccc(Cl)c(C(F)(F)F)c2)cc1C#Cc1nn(C2CCC(O)CC2)c2ncnc(N)c12 (stereo not shown) [Compound 74] | < 100 | < 100 |  |  |
| Cc1ccc(NC(=O)c2ccc(Cl)c(C(F)(F)F)c2)cc1C#Cc1nn(CC2CCN(S(C)(=O)=O)CC2)c2ncnc(N)c12 [Compound 75] | 100 to 500 | > 1000 |  |  |
| Cc1ccc(NC(=O)c2ccc(Cl)c(C(F)(F)F)c2)cc1C#Cc1nn(CC2CCN(S(C)(=O)=O)C2)c2ncnc(N)c12 (stereo not shown) [Compound 76] | < 100 | 100 to 500 |  |  |
| Cc1ccc(NC(=O)c2ccc(Cl)c(C(F)(F)F)c2)cc1C#Cc1nn(C2CCC2)c2ncnc(N)c12 [Compound 77] | 500 to 1000 | > 1000 |  |  |
| Cc1ccc(NC(=O)c2ccc(Cl)c(C(F)(F)F)c2)cc1C#Cc1nn(C2CCCC2)c2ncnc(N)c12 [Compound 78] | < 100 | 500 to 1000 |  |  |
